Measured values taken from patent EP4667458A1 (Kanaph Therapeutics Inc., priority 2023, dated 2024).

Target: T1, SOS1 (Homo sapiens, UniProt Q07889)
T1 construct: adding equal amounts of HIS-SOS1cat (160 nM; Cytoskeleton, US); His; purchased Cytoskeleton, US
T1 sequence (Q07889 564-1049 limits assumed): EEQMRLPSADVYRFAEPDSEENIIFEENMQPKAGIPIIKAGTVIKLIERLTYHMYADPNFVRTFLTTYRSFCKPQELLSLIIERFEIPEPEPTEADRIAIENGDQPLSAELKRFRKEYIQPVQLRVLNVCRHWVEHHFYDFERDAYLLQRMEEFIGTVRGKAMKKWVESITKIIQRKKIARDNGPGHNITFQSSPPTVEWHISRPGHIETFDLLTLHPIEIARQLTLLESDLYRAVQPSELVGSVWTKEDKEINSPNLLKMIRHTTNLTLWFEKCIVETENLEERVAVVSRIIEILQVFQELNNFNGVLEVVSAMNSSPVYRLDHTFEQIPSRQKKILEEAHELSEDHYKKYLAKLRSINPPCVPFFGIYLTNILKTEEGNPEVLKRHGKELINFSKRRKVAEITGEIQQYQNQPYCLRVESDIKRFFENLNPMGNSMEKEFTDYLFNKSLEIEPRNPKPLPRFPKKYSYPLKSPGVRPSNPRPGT
Test: SOS-catalyzed nucleotide exchange assay (HTRF, SOS1-mediated GTP loading of KRAS G12D)
Format: biochemical
Settings: GST-KRAS G12D, HIS-SOS1cat, EDA-GTP-DY-647P1; compound 128 pM to 10 µM; read-out: SOS-catalyzed nucleotide exchange assay (IC50 range, Grade)
Method: SOS1 activity was measured by SOS1-mediated GTP loading quantification of KRAS^G12D. GTP-loaded KRAS^G12D was detected by HTRF (Homogeneous Time Resolved Fluorescence) using anti-GST terbium (Cisbio, France) as a donor and a fluorescence GTP analogue (EDA-GTP-DY-647P1, [DY-647P1-labeled 2'/3'-O-(2-aminoethyl-carbamoyl)guanosine-5'-triphosphate (Jena bioscience, Germany)]) as an acceptor.
Assay buffer was composed of 10 mM HEPES pH 7.4, 150 mM NaCl, 5 mM MgCl2, 1 mM DTT, 0.05% BSA Fraction V pH 7.0 (Sigma) and 0.0025% (v/v) Igepal (Sigma). KRAS^G12D working solution was prepared by adding equal amounts of GST-KRAS^G12D (100 nM) and anti-GST-terbium (2 nM; Cisbio, France) to the assay buffer and incubating on ice for 10 minutes. SOS1cat working solution was prepared by adding equal amounts of HIS-SOS1cat (160 nM; Cytoskeleton, US) and EDA-GTP-DY-647P1 (200 nM; Jena bioscience, Germany) to the assay buffer. Control solution was prepared by adding equal volumes of EDA-GTP-DY-647P1 and the assay buffer for normalization control to exclude GEF-independent GTP loading and background signals. In order to induce a reaction, 5 µL of the SOS1cat working solution or the control solution was injected into each well. 5 µL of a compound having various concentrations from 128 pM to 10 µM was added to wells containing the SOS1cat working solution and incubated at room temperature for 10 minutes to bind to SOS1.
10 µL of the KRAS^G12D solution was added to each well and incubated for 30 minutes at room temperature while shaking. HTRF was measured using a Thermo Varioskan (excitation 334 nm, emission 665 nm). The IC50 of each inhibitor was analyzed using Graphad Prism.
The SOS1 inhibitory activity of the Example compounds measured by the above method was evaluated based on the following criteria, and the results are shown in Table 29.

First: C[C@@H](NC(=O)c1ccc(=O)n(C2=CCN(S(C)(=O)=O)CC2)c1)c1cc(N)cc(C(F)(F)F)c1 [Example 74, N-[(1R)-1-[3-amino-5-(trifluoromethyl)phenyl]ethyl]-1'-methanesulfonyl-6-oxo-2',3'-dihydro-1'H,6H,6'H-[1,4'-bipyridine]-3-carboxamide]
Second: C[C@@H](NC(=O)c1ccc(=O)n(C2CCN(S(C)(=O)=O)CC2)n1)c1cc(N)cc(C(F)(F)F)c1 [Example 120, N-[(1R)-1-[3-amino-5-(trifluoromethyl)phenyl]ethyl]-1-(1-methanesulfonylpiperidin-4-yl)-6-oxo-1,6-dihydropyridazine-3-carboxamide]
The IC50 of the first is lower: under 1000 nM for the first, 1000 to 10000 nM for the second.

`C[C@@H](NC(=O)c1ccc(=O)n(-c2ccccn2)n1)c1cc(N)cc(C(F)(F)F)c1` [Example 20, N-[(1R)-1-[3-amino-5-(trifluoromethyl)phenyl]ethyl]-6-oxo-1-(2-pyridyl)pyridazine-3-carboxamide] and `C[C@@H](NC(=O)c1ccc(=O)n(-c2cccnc2)n1)c1cc(N)cc(C(F)(F)F)c1` [Example 26, (R)-N-(1-(3-amino-5-(trifluoromethyl)phenyl)ethyl)-6-oxo-1-(pyridin-3-yl)-1,6-dihydropyridazine-3-carboxamide] cannot be ordered by IC50: under 1000 nM for the first, under 1000 nM for the second.

`C[C@@H](NC(=O)c1ccc(=O)n(-c2ccccc2)n1)c1ccc(S(C)(=O)=O)cc1` [Example 12, N-[(1R)-1-(4-methylsulfonylphenyl)ethyl]-6-oxo-1-phenyl-pyridazine-3-carboxamide] and `Cc1ccc([C@@H](C)NC(=O)c2ccc(=O)n(-c3ccccc3)n2)cc1` [Example 7, (R)-6-oxo-1-phenyl-N-(1-(p-tolyl)ethyl)-1,6-dihydropyridazine-3-carboxamide] cannot be ordered by IC50: over 10000 nM for the first, over 10000 nM for the second.

`C[C@@H](NC(=O)c1ccc(=O)n(-c2ccccc2)n1)c1cccc(C(F)(F)F)c1` [Example 15, 6-oxo-1-phenyl-N-[(1R)-1-[3-(trifluoromethyl)phenyl]ethyl]pyridazine-3-carboxamide] and `C[C@@H](NC(=O)c1ccc(=O)n(-c2ccccc2)n1)c1cc(N)cc(C(F)(F)F)c1` [Example 16, N-[(1R)-1-[3-amino-5-(trifluoromethyl)phenyl]ethyl]-6-oxo-1-phenyl-pyridazine-3-carboxamide] cannot be ordered by IC50: under 1000 nM for the first, under 1000 nM for the second.

`CC(=O)N1CC=C(n2nc(C(=O)N[C@H](C)c3cc(N)cc(C(F)(F)F)c3)ccc2=O)CC1` [Example 68, 1-(1-acetyl-1,2,3,6-tetrahydropyridin-4-yl)-N-[(1R)-1-[3-amino-5-(trifluoromethyl)phenyl]ethyl]-6-oxo-1,6-dihydropyridazine-3-carboxamide] and `C[C@@H](NC(=O)c1ccc(=O)n(C2=CCCCC2)n1)c1cc(N)cc(C(F)(F)F)c1` [Example 65, N-[(1R)-1-[3-amino-5-(trifluoromethyl)phenyl]ethyl]-1-(cyclohex-1-en-1-yl)-6-oxo-1,6-dihydropyridazine-3-carboxamide] cannot be ordered by IC50: under 1000 nM for the first, under 1000 nM for the second.

Compared with `C[C@@H](NC(=O)c1cc(O)c(=O)n(-c2ccccc2)n1)c1cc(N)cc(C(F)(F)F)c1` [Example 48, (R)-N-(1-(3-amino-5-(trifluoromethyl)phenyl)ethyl)-5-hydroxy-6-oxo-1-phenyl-1,6-dihydropyridazine-3-carboxamide], `C[C@@H](NC(=O)c1cc(C2CC2)c(=O)n(-c2ccccc2)n1)c1cc(N)cc(C(F)(F)F)c1` [Example 54, (R)-N-(1-(3-amino-5-(trifluoromethyl)phenyl)ethyl)-5-cyclopropyl-6-oxo-1-phenyl-1,6-dihydropyridazine-3-carboxamide] is lower in IC50: 1000 to 10000 nM for the first, under 1000 nM for the second.

`C[C@@H](NC(=O)c1ccc(=O)n(-c2ccccc2)c1)c1cc(N)cc(C(F)(F)F)c1` [Example 62, N-[(1R)-1-[3-amino-5-(trifluoromethyl)phenyl]ethyl]-6-oxo-1-phenylpyridine-3-carboxamide] and `C[C@@H](NC(=O)c1ccc(=O)n(-c2ccncc2)c1)c1cc(N)cc(C(F)(F)F)c1` [Example 73, N-[(1R)-1-[3-amino-5-(trifluoromethyl)phenyl]ethyl]-2-oxo-2H-[1,4'-bipyridine]-5-carboxamide] cannot be ordered by IC50: under 1000 nM for the first, under 1000 nM for the second.

`Cc1cc(-n2nc(C(=O)N[C@H](C)c3cc(N)cc(C(F)(F)F)c3)ccc2=O)cs1` [Example 27, (R)-N-(1-(3-amino-5-(trifluoromethyl)phenyl)ethyl)-1-(5-methylthiophen-3-yl)-6-oxo-1,6-dihydropyridazine-3-carboxamide] and `COc1cccc(-n2nc(C(=O)N[C@H](C)c3cc(N)cc(C(F)(F)F)c3)ccc2=O)c1` [Example 40, N-[(1R)-1-[3-amino-5-(trifluoromethyl)phenyl]ethyl]-1-(3-methoxyphenyl)-6-oxo-pyridazine-3-carboxamide] cannot be ordered by IC50: under 1000 nM for the first, under 1000 nM for the second.

First: C[C@@H](NC(=O)c1ccc(=O)n(-c2ccccc2)n1)c1cccc(C#N)c1 [Example 4, (R)-N-(1-(3-cyanophenyl)ethyl)-6-oxo-1-phenyl-1,6-dihydropyridazine-3-carboxamide]
Second: C[C@@H](NC(=O)c1ccc(=O)n(-c2ccccc2)n1)c1ccc(Cl)cc1 [Example 5, (R)-N-(1-(4-chlorophenyl)ethyl)-6-oxo-1-phenyl-1,6-dihydropyridazine-3-carboxamide]
The IC50 of the first is lower: 1000 to 10000 nM for the first, over 10000 nM for the second. The first is the more potent here.

Compared with `C[C@@H](NC(=O)c1ccc(=O)n(-c2ccccc2)n1)c1cccc(Oc2ccccc2)c1` [Example 13, 6-oxo-N-[(1R)-1-(3-phenoxyphenyl)ethyl]-1-phenyl-pyridazine-3-carboxamide], `CC(=O)Nc1cccc(-n2nc(C(=O)N[C@H](C)c3cccc(C(F)(F)CO)c3)ccc2=O)c1` [Example 53, 1-(3-acetamidophenyl)-N-[(1R)-1-[3-(1,1-difluoro-2-hydroxyethyl)phenyl]ethyl]-6-oxo-pyridazine-3-carboxamide] is higher in IC50: under 1000 nM for the first, 1000 to 10000 nM for the second. The first is the more potent here.

`COc1ccc(-n2nc(C(=O)N[C@H](C)c3cc(N)cc(C(F)(F)F)c3)ccc2=O)cc1OC` [Example 36, N-[(1R)-1-[3-amino-5-(trifluoromethyl)phenyl]ethyl]-1-(3,4-dimethoxyphenyl)-6-oxo-pyridazine-3-carboxamide] and `C[C@@H](NC(=O)c1ccc(=O)n(-c2ccccc2N)n1)c1cc(N)cc(C(F)(F)F)c1` [Example 51, (R)-N-(1-(3-amino-5-(trifluoromethyl)phenyl)ethyl)-1-(2-aminophenyl)-6-oxo-1,6-dihydropyridazine-3-carboxamide] cannot be ordered by IC50: under 1000 nM for the first, under 1000 nM for the second.

Compared with `C[C@@H](NC(=O)c1ccc(=O)n(-c2ccccc2OC(F)(F)F)n1)c1cc(N)cc(C(F)(F)F)c1` [Example 45, N-[(1R)-1-[3-amino-5-(trifluoromethyl)phenyl]ethyl]-6-oxo-1-[2-(trifluoromethoxy)phenyl]pyridazine-3-carboxamide], `C[C@@H](NC(=O)c1ccc(=O)n(C2CCCCC2)n1)c1cc(N)cc(C(F)(F)F)c1` [Example 116, N-[(1R)-1-[3-amino-5-(trifluoromethyl)phenyl]ethyl]-1-cyclohexyl-6-oxo-1,6-dihydropyridazine-3-carboxamide] is higher in IC50: under 1000 nM for the first, 1000 to 10000 nM for the second.

`C[C@@H](NC(=O)c1ccc(=O)n(-c2cccc(NS(C)(=O)=O)c2)n1)c1cccc(C(F)(F)CO)c1` [Example 39, (R)-N-(1-(3-(1,1-difluoro-2-hydroxyethyl)phenyl)ethyl)-1-(3-(methylsulfonamido)phenyl)-6-oxo-1,6-dihydropyridazine-3-carboxamide] and `C[C@@H](NC(=O)c1ccc(=O)n(-c2cccc(C(=O)OC(C)(C)C)c2)c1)c1cc(N)cc(C(F)(F)F)c1` [Example 72, Tert-butyl 3-(5-{[(1R)-1-[3-amino-5-(trifluoromethyl)phenyl]ethyl]carbamoyl}-2-oxo-1,2-dihydropyridin-1-yl)benzoate] cannot be ordered by IC50: under 1000 nM for the first, under 1000 nM for the second.

`C[C@@H](NC(=O)c1ccc(=O)n(C2C[C@@H]3CC[C@H]2C3)n1)c1cc(N)cc(C(F)(F)F)c1` (stereo partly drawn) [Example 119, N-[(1R)-1-[3-amino-5-(trifluoromethyl)phenyl]ethyl]-1-[(1S,4R)-bicyclo[2.2.1]heptan-2-yl]-6-oxo-1,6-dihydropyridazine-3-carboxamide] was tested, and the IC50 was over 10000 nM.
